Experimental data taken from publication PMC6691788, “Design and synthesis of phthalazine-based compounds as potent anticancer agents with potential antiangiogenic activity via VEGFR-2 inhibition” (Journal of Enzyme Inhibition and Medicinal Chemistry, 2019).

Key:
Test in all cases: NCI 60 cell panel SRB screen
NCI-H322M = assay type: cell-based; settings: Homo sapiens
786-0 = assay type: cell-based; settings: Homo sapiens
CAKI-1 = assay type: cell-based, human; settings: Homo sapiens; CAKI-1, single dose 10 μM; read-out: percent cell growth promotion
TK-10 = assay type: cell-based, human; settings: Homo sapiens; TK-10, single dose 10 μM; read-out: percent cell growth promotion
HCT-116 = assay type: cell-based; settings: Homo sapiens
SK-MEL-28 = assay type: cell-based; settings: Homo sapiens
RXF 393 = assay type: cell-based; settings: Homo sapiens
UACC-62 = assay type: cell-based
BT-549 = assay type: cell-based; settings: Homo sapiens
SNB-75 = assay type: cell-based; settings: Homo sapiens
SR = assay type: cell-based; settings: Homo sapiens
HCT-15 = assay type: cell-based; settings: Homo sapiens
A498 = assay type: cell-based; settings: Homo sapiens
MALME-3M = assay type: cell-based; settings: Homo sapiens
IGROV1 = assay type: cell-based; settings: Homo sapiens, IGROV-1
KM12 = assay type: cell-based; settings: Homo sapiens
OVCAR-5 = assay type: cell-based; settings: Homo sapiens
COLO 205 = assay type: cell-based; settings: Homo sapiens
M14 = assay type: cell-based; settings: Homo sapiens
HL-60(TB) = assay type: cell-based; settings: Homo sapiens
HT29 = assay type: cell-based; settings: Homo sapiens, HT-29
MOLT-4 = assay type: cell-based; settings: Homo sapiens
U251 = assay type: cell-based; settings: Homo sapiens, U-251
SW-620 = assay type: cell-based; settings: Homo sapiens
HS 578T = assay type: cell-based; settings: Homo sapiens
DU-145 = assay type: cell-based; settings: Homo sapiens
[1] = 5 log dose, 48 h, read-out: LC50 (the source's name)
[2] = single dose 10 μM, read-out: percent cell growth promotion

Clc1ccc(Nc2nnc(CNc3ccccc3)c3ccccc23)cc1 [Compound 16a, N-(4-Chlorophenyl)-4-((phenylamino)methyl)phthalazin-1-amine]
GI50 (NCI-H322M; 5 log dose): 3.54 µM
IC (TGI) (NCI-H322M; 5 log dose): 18.3 µM
CC50 (NCI-H322M; [1]): > 25 µM
activity at 10 µM (NCI-H322M; [2]): 30.4%
GI50 (786-0; 786-0, 5 log dose): 4.01 µM
IC (TGI) (786-0; 786-0, 5 log dose): 12.5 µM
CC50 (786-0; 786-0, 5 log dose, 48 h, read-out: LC50 (the source's name)): > 25 µM
activity at 10 µM (786-0; 786-0, single dose 10 μM, read-out: percent cell growth promotion): 21.4%
activity at 10 µM (CAKI-1): 28.2%
activity at 10 µM (TK-10): -0.69%
GI50 (HCT-116; HCT-116, 5 log dose): 1.2 µM
IC (TGI) (HCT-116; HCT-116, 5 log dose): 5.02 µM
LC50 (lethal concentration 50%) (HCT-116; HCT-116, 5 log dose, 48 h): 13.3 µM
activity at 10 µM (HCT-116; HCT-116, single dose 10 μM, read-out: percent cell growth promotion): 9.94%
GI50 (SK-MEL-28; SK-MEL-28): 3.67 µM
IC (TGI) (SK-MEL-28; SK-MEL-28, read-out: TGI): 10.5 µM
activity at 10 µM (SK-MEL-28; SK-MEL-28, read-out: percent cell growth promotion): 14.9%
CC50 (SK-MEL-28; SK-MEL-28, 5 log dose, 48 h, read-out: LC50 (the source's name)): > 25 µM
GI50 (RXF 393; RXF 393, 5 log dose): 2.6 µM
IC (TGI) (RXF 393; RXF 393, 5 log dose): 8.12 µM
CC50 (RXF 393; RXF 393, 5 log dose, 48 h, read-out: LC50 (the source's name)): > 25 µM
activity at 10 µM (RXF 393; RXF 393, single dose 10 μM, read-out: percent cell growth promotion): 25.7%
GI50 (UACC-62; Homo sapiens, UACC-62): 1.25 µM
activity at 10 µM (UACC-62; Homo sapiens, UACC-62, read-out: percent cell growth promotion): 8.47%
CC50 (UACC-62; Homo sapiens, UACC-62, 5 log dose, 48 h, read-out: LC50 (the source's name)): 19 µM
TGI (UACC-62; UACC-62, 5 log dose): 5.70 µM
GI50 (BT-549; BT-549): 2.93 µM
IC (TGI) (BT-549; BT-549, read-out: TGI): 8.2 µM
activity at 10 µM (BT-549; BT-549, read-out: percent cell growth promotion): 4.94%
CC50 (BT-549; BT-549, 5 log dose, 48 h, read-out: LC50 (the source's name)): 22.9 µM
GI50 (SNB-75; SNB-75, 5 log dose): 0.87 µM
IC (TGI) (SNB-75; SNB-75, 5 log dose): 7.05 µM
LC50 (concentration killing 50% of cells) (SNB-75; SNB-75, 5 log dose, 48 h): > 25 µM
activity at 10 µM (SNB-75; SNB-75, single dose 10 μM, read-out: percent cell growth promotion): 19.6%
GI50 (SR; 5 log dose): 1.75 µM
IC (TGI) (SR; 5 log dose): 12.3 µM
CC50 (SR; [1]): > 25 µM
activity at 10 µM (SR; [2]): -9.19%
GI50 (HCT-15; HCT-15, 5 log dose): 2.99 µM
IC (TGI) (HCT-15; HCT-15, 5 log dose): 9.39 µM
CC50 (HCT-15; HCT-15, 5 log dose, 48 h, read-out: LC50 (the source's name)): > 25 µM
activity at 10 µM (HCT-15; HCT-15, single dose 10 μM, read-out: percent cell growth promotion): 13.4%
GI50 (A498; A498, 5 log dose): 1.45 µM
IC (TGI) (A498; A498, 5 log dose): 6.6 µM
CC50 (A498; A498, 5 log dose, 48 h, read-out: LC50 (the source's name)): 17.6 µM
activity at 10 µM (A498; A498, single dose 10 μM, read-out: percent cell growth promotion): 24.7%
GI50 (MALME-3M; Malme-3M): 2.66 µM
IC (TGI) (MALME-3M; Malme-3M, read-out: TGI): 9.92 µM
activity at 10 µM (MALME-3M; Malme-3M, read-out: percent cell growth promotion): -13.8%
CC50 (MALME-3M; MALME-3M, 5 log dose, 48 h, read-out: LC50 (the source's name)): > 25 µM
GI50 (IGROV1; IGROV1, 5 log dose): 1.93 µM
IC (TGI) (IGROV1; IGROV1, 5 log dose): 10.7 µM
CC50 (IGROV1; IGROV1, 5 log dose, 48 h, read-out: LC50 (the source's name)): > 25 µM
activity at 10 µM (IGROV1; IGROV1, single dose 10 μM, read-out: percent cell growth promotion): 19.1%
GI50 (KM12; KM12, 5 log dose): 3.05 µM
IC (TGI) (KM12; KM12, 5 log dose): 9.91 µM
CC50 (KM12; KM12, 5 log dose, 48 h, read-out: LC50 (the source's name)): > 25 µM
activity at 10 µM (KM12; KM12, single dose 10 μM, read-out: percent cell growth promotion): 8.93%
GI50 (OVCAR-5; OVCAR-5, 5 log dose): 4.92 µM
IC (TGI) (OVCAR-5; OVCAR-5, 5 log dose): > 25 µM
CC50 (OVCAR-5; OVCAR-5, 5 log dose, 48 h, read-out: LC50 (the source's name)): > 25 µM
activity at 10 µM (OVCAR-5; OVCAR-5, single dose 10 μM, read-out: percent cell growth promotion): 41.5%
GI50 (COLO 205; COLO 205, 5 log dose): 0.91 µM
IC (TGI) (COLO 205; COLO 205, 5 log dose): 5.39 µM
CC50 (COLO 205; COLO 205, 5 log dose, 48 h, read-out: LC50 (the source's name)): 20.5 µM
activity at 10 µM (COLO 205; COLO 205, single dose 10 μM, read-out: percent cell growth promotion): 11.9%
GI50 (M14; M14): 1.74 µM
IC (TGI) (M14; M14, read-out: TGI): 6.65 µM
activity at 10 µM (M14; M14, read-out: percent cell growth promotion): 5.8%
CC50 (M14; M14, 5 log dose, 48 h, read-out: LC50 (the source's name)): 20.6 µM
GI50 (HL-60(TB); 5 log dose): 3.71 µM
IC (TGI) (HL-60(TB); 5 log dose): 13 µM
CC50 (HL-60(TB); [1]): > 25 µM
activity at 10 µM (HL-60(TB); [2]): -13.3%
GI50 (HT29; HT29, 5 log dose): 1.46 µM
IC (TGI) (HT29; HT29, 5 log dose): 6.36 µM
CC50 (HT29; HT29, 5 log dose, 48 h, read-out: LC50 (the source's name)): 21.2 µM
activity at 10 µM (HT29; HT29, single dose 10 μM, read-out: percent cell growth promotion): 0.55%
GI50 (MOLT-4; MOLT-4, 5 log dose): 1.71 µM
IC (TGI) (MOLT-4; MOLT-4, 5 log dose): 8.75 µM
CC50 (MOLT-4; MOLT-4, 5 log dose, 48 h, read-out: LC50 (the source's name)): > 25 µM
activity at 10 µM (MOLT-4; MOLT-4, single dose 10 μM, read-out: percent cell growth promotion): -9.21%
GI50 (U251; U251, 5 log dose): 3.28 µM
IC (TGI) (U251; U251, 5 log dose): 7.33 µM
CC50 (U251; U251, 5 log dose, 48 h, read-out: LC50 (the source's name)): 16.4 µM
activity at 10 µM (U251; U251, single dose 10 μM, read-out: percent cell growth promotion): 9.66%
GI50 (SW-620; SW-620, 5 log dose): 3.84 µM
IC (TGI) (SW-620; SW-620, 5 log dose): 11.1 µM
CC50 (SW-620; SW-620, 5 log dose, 48 h, read-out: LC50 (the source's name)): > 25 µM
activity at 10 µM (SW-620; SW-620, single dose 10 μM, read-out: percent cell growth promotion): 30.8%
GI50 (HS 578T; Hs-578T): 2.95 µM
IC (TGI) (HS 578T; Hs-578T, read-out: TGI): 12.9 µM
activity at 10 µM (HS 578T; Hs-578T, read-out: percent cell growth promotion): 26.6%
CC50 (HS 578T; HS 578T, 5 log dose, 48 h, read-out: LC50 (the source's name)): > 25 µM
GI50 (DU-145; DU-145, 5 log dose): > 25 µM
IC (TGI) (DU-145; DU-145, 5 log dose): > 25 µM
CC50 (DU-145; DU-145, 5 log dose, 48 h, read-out: LC50 (the source's name)): > 25 µM
activity at 10 µM (DU-145; DU-145, single dose 10 μM, read-out: percent cell growth promotion): 19%
